Results taken from patent US20040157738A1, “Novel oxygen containing fused cyclic derivatives and herbicidal, desiccant and defoliate compositions containing them” (ISHIHARA SANGYO KAISHA, LTD., priority 2003, published 2004).

Legend:
Assay type in all cases: in vivo
[1] = tested on: wheat (Triticum aestivum L.), TRZAX; assay: Test Example 2: post-emergence (foliage treatment) herbicidal activity (growth controlling degree); settings: 2.8 leaf stage
In short: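 Herbicidal effect is rated by eye as growth control from 0 (like untreated plants) to 100 (plants killed). Compound, formulated as wettable powder or emulsifiable concentrate, is applied post-emergence to foliage in water at 500 L/ha with 0.1%(v/v) spreader.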

[2] = tested on: rice (Oryza sativa L.: ORYSA); assay: Test Example 3: water application herbicidal activity, paddy (growth controlling degree); settings: rate 63 g a.i./ha, paddy pot, rice of 2 leaf stage transplanted, treated on the 4th day after transplantation; for pest or weed control at 63 g/ha: Oryza sativa, 504 h
Description: (§1) Paddy field soil was put into a {fraction (1/1,000,000)} ha pot, and seeds of barnyardgrass (Echinochloa oryzicola: ECHOR) and japanese bulrush (Scirpus juncoides: SCPJO) were sown and slightly covered with soil. Then the pot was left to stand still in a greenhouse in a state where the depth of flooding water was from 0.5 to 1 cm, and one day later, tubers of japanese ribbon wapato (Sagittaria pygmaea: SAGPY) were planted. Thereafter, the depth of flooding water was maintained at a level of from 3 to 4 cm, and when barnyardgrass and japanese bulrush reached a 0.5 leaf stage, an aqueous diluted solution of a wettable powder or emulsifiable concentrate having the compound of the present invention formulated in accordance with a usual formulation method, was uniformly applied under submerged condition by a pipette so that the dose of the active ingredient would be at a predetermined level. On the other hand, paddy filed soil was put into a {fraction (1/1,000,000)} ha pot and puddled and leveled, and the depth of flooding water was from 3 to 4 cm. One day later, rice (Oryza sativa L.: ORYSA) of 2 leaf stage was transplanted in a depth of 3 cm. On the 4th day after the transplantation, the compound of the present invention was applied in the same manner as described above. On the 14th day after the application of the herbicide, the growth of barnyardgrass, japanese burlush and japanese ribbon wapato was visually observed and on the 21st day after the application of the herbicide, the growth of rice was visually observed, and the herbicidal effects were evaluated by growth controlling degrees (%) ranging from 0 (equivalent to the untreated control) to 100 (complete kill), whereby the results shown in Table 13, were obtained. Compound Nos. in Table 13 correspond to Compound Nos. in Table 1 to 7 given hereinbefore.

[3] = tested on: barnyardgrass (Echinochloa oryzicola: ECHOR); assay: as above; settings: rate 63 g a.i./ha, water application under submerged condition, paddy pot, barnyardgrass at 0.5 leaf stage; for pest or weed control at 63 g/ha: Echinochloa oryzicola, 336 h
Description: as §1

[4] = tested on: japanese bulrush (Scirpus juncoides: SCPJO); assay: as above; settings: rate 63 g a.i./ha, water application under submerged condition, paddy pot, japanese bulrush at 0.5 leaf stage; for pest or weed control at 63 g/ha: Schoenoplectiella juncoides, 336 h
Description: as §1

[5] = tested on: japanese ribbon wapato (Sagittaria pygmaea: SAGPY); assay: as above; settings: rate 63 g a.i./ha; water application under submerged condition, paddy pot; tubers of japanese ribbon wapato planted
Description: as §1

[6] = tested on: wheat (Triticum aestivum L.): TRZAX; assay: Test Example 1: pre-emergence herbicidal activity (growth controlling degree); settings: 20th to 21st day after application
In short: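 Visual growth controlling degree (0 = as untreated control, 100 = complete kill) was scored on days 20–21 after a pre-emergence soil spray. Compound, formulated as wettable powder or emulsifiable concentrate, was applied in 500 L/ha water one day after sowing into upland soil pots.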

Compound	growth controlling degree, TRZAX ([1]; 63 g a.i./ha) [%]	pest or weed control at 63 g/ha [2] [%]	pest or weed control at 63 g/ha [3] [%]	pest or weed control at 63 g/ha [4] [%]	Water Application Herbicidal Activity SAGPY (growth controlling degree) [5] [%]	growth controlling degree, TRZAX ([6]; 125 g a.i./ha) [%]	growth controlling degree, TRZAX ([6]; 250 g a.i./ha) [%]	Water Application Herbicidal Activity ORYSA (growth controlling degree) [2] [%]	Water Application Herbicidal Activity ECHOR (growth controlling degree) [3] [%]	Water Application Herbicidal Activity SCPJO (growth controlling degree) [4] [%]	growth controlling degree, TRZAX ([1]; 31 g a.i./ha) [%]
Cn1nc(-c2c(F)cc(Cl)c3c2CCCO3)c(Cl)c1C(F)(F)F [Compound 1-2, 4-chloro-3-(8-chloro-6-fluoro-3,4-dihydro-2H-1-benzopyran-5-yl)-1-methyl-5-(trifluoromethyl)-1H-pyrazole]	30	20	40	30	0						
CC1CCc2c(c(Cl)cc(F)c2-c2nn(C)c(C(F)(F)F)c2Cl)O1 (stereo not shown) [Compound 1-8]		10	60	60	40						
Cn1nc(-c2c(F)cc(Cl)c3c2CCCO3)c(Cl)c1OC(F)F [Compound 1-33, 4-chloro-3-(8-chloro-6-fluoro-3,4-dihydro-2H-1-benzopyran-5-yl)-5-(difluoromethoxy)-1-methyl-1H-pyrazole]	98	80	100	100	100	70					
CC1CCc2c(c(Cl)cc(F)c2-c2nn(C)c(OC(F)F)c2Cl)O1 (stereo not shown) [Compound 1-39]		60	100	100	100						
Cn1nc(-c2c(F)cc(Cl)c3c2CCC(c2ccccc2)O3)c(Cl)c1OC(F)F (stereo not shown) [Compound 1-42]		35	100	98	100		0				
Fc1cc(Cl)c2c(c1-c1nn3c(c1Cl)CCCC3)CCCO2 [Compound 1-79, 3-chloro-2-(8-chloro-6-fluoro-3,4-dihydro-2H-1-benzopyran-5-yl)-4,5,6,7-tetrahydro-pyrazolo[1,5-a]pyridine]		40	100	100	100		10				
CC1CCc2c(c(Cl)cc(F)c2-c2nn3c(c2Cl)CCCC3)O1 (stereo not shown) [Compound 1-85]					100			10	100	98	
CCCCCC1CCc2c(c(Cl)cc(F)c2-c2nn(C)c(OC(F)F)c2Cl)O1 (stereo not shown) [Compound 1-101]					100	20		35	100	50	30
Fc1cc(Cl)c2c(c1-c1ncc(C(F)(F)F)cc1Cl)CCCO2 [Compound 7-2, 3-chloro-2-(8-chloro-6-fluoro-3,4-dihydro-2H-1-benzopyran-5-yl)-5-(trifluoromethyl)-pyridine]		0	100	98			50				
